Earlier results as cited in US7704745B2 (priority 2001, dated 2010).

Test system: human hepatocyte and neuroblastoma cells
Conditions: cited from earlier work

SMILES | effect on hepatocyte and neuroblastoma cell metabolism
CCOP(=O)(OCC)Oc1ccc([N+](=O)[O-])cc1 [paraoxon] | opposite effects
CCOP(=S)(OCC)Oc1ccc([N+](=O)[O-])cc1 [parathion] | opposite effects
